In US12415939B2, “Nano-adhesive and surface primer compound and use thereof” (The Regents of the University of California, priority 2015, dated 2025):

Experiments:
[1] = Lap joint bending peel test
Description: Below are the detailed methods following in sequential order in time: • 1) The aqueous Z-Cat-C10 solution was prepared at 100 mg ml^−1 concentration (very turbid solution at room temperature) (FIG. 10A test-tube on the left). • 2) The solution was centrifuged at 3000 rpm (805×g) for 5 min to expedite the process of liquid-liquid phase separation (FIG. 10A test-tubes in the middle and the right). 3) The lower dense coacervate phase was collected in a syringe (FIG. 24A) and injected (spread, ˜10 μl) over a steel plate immersed in water i.e., artificial sea water, aqueous periodate solution, and DI water, respectively (FIG. 24B). • 4) Another steel plate glued onto the steel plate with coacervates on as a lap joint (cross-sectional area 2.54 cm×2.54 cm. • 5) The each lap joint was loaded (250 g) for 12 h of compressive setting (FIG. 24C). • 6) The lap joint bending peel test was conducted underwater for each lap joint prepared in artificial seawater, aqueous periodate solution, and DI water, respectively (FIGS. 24D-24F). • 7) The lap joint bending peel test was conducted dry ambient condition for the lap joint prepared in the periodate solution after 12 h drying in ambient condition Standard Three Point Bending Peel Test
The catecholic zwitterions were inspired by interfacial proteins (mfp-3 and -5) that function as adhesive primers, but not as bulk adhesives. To determine whether Z-Cat-C10 is limited to surface binding or develops measurable bulk cohesion (thickness […]), bulk rupture tests were done using a peeling-by-bending test to better mimic the role that interfacial proteins play in resisting plaque detachment as well as lap-shear bonding test. Lap joints were prepared by gluing two steel plates (SS304) immersed in water using the lower dense coacervate (˜10 μl) (FIGS. 24A-24H). The lap joint (cross-sectional area=2.54 cm×2.54 cm) prepared in artificial seawater or periodate solution, respectively, held a load up to 3 N underwater. […] After 12 h ambient drying, the joint prepared in 1 M periodate solution held much higher load, 11 N: Standard three point bending peel strength of the lap joint (cross-sectional area=2.54 cm×1.27 cm) was measured under ambient dry conditions after drying 12 h. […] Shear bonding strength of the lap joint (cross-sectional area=2.54 cm×2.54 cm) was also measured, 1.1 MPa (standard deviation=0.3, n=4)—similar to Dopa-functionalized polypeptide prepared under ambient dry conditions, 0.9 MPa. […] Nevertheless, the results present that the zwitterionic surfactants were capable of micro-gap-filling as well as nano-gap-filling shown in AFM and SFA, and indicate that they are more versatile than surface primers. The results also attest to the self-assembling ability of Z-Cat-C10 (FIGS. 13A-13C, double bilayer structure).

[2] = AFM adhesion force runs with silica probe on Z-Cat-C10 coated silicon wafer; format: physicochemical
Description: AFM force runs were measured with and without Z-Cat-C10 on silicon wafer and copper plate, respectively, vs. silicon dioxide probe. Underwater force run was conducted for the surface prepared subsequently after spreading the 5 mM Z-Cat-C10, waiting for 2 min, rinsing thoroughly with degassed DI water thoroughly for 3 times. Dry force run was performed after ˜5 min dry of the surface prepared as for the underwater force run. […] Cantilever spring constant (K) for #=10 μm silica tip on silicon wafer and copper plate with Z-Cat-C10, was 0.1 N m^−1.
The measured adhesion, Fa, force (minimum of the potential well of the F vs. D curves obtained from AFM measurements) is related to the adhesion energy per unit area by Wa=Fa/2πR for rigid surfaces with weak adhesive interactions, and by Wa=Fa/1.5πR (used in this study) for soft deformable surfaces with strong adhesion or cohesion. Since copper surface (RMS˜2 nm) is rougher than silicon wafer (RMS<1 nm), the Wa on copper surface was comparatively weaker than the Wa of silicon wafer. Hydroxide/oxide on copper surface also weakens the adhesion to copper plate compared to just oxide on silicon wafer (see FIGS. 18-23). […]
The adhesion/cohesion energy of the synthetic zwitterionic molecules was investigated in SFA (SurForce LLC, Santa Barbara, CA). Two molecularly smooth freshly cleaved back silvered mica surfaces glued on cylindrical silica discs of radius of curvature, R˜2 cm, were mounted in the SFA and 50 μL of a colloidal dispersion of the synthetic molecules in DI water were injected between the surfaces at different concentrations (C=0.5-5 mM) and the forces between the thin films of the molecules were measured by Multiple Beam Interferometry (MBI). The adhesion forces between Z-Cat-C10 molecules on various surfaces, e.g., silica and copper, were also measured by AFM (MFP-3D, Asylum research, Goleta, CA) in DI water and ambient conditions, respectively, at room temperature. […] Cantilever spring constants were measured for each force run. […]

SMILES: CN(C)CCOP(=O)(O)OCCCc1ccc(O)c(O)c1 [Z-Cat-C10]
- load held by lap joint ([1]; dry ambient conditions (Z-Cat-C10 joint prepared in aqueous periodate)): ≤ 1.1 kg
- load held by lap joint ([1]; prepared in 1 M periodate, after 12 h ambient drying): 11 N
- load held by lap joint ([1]; prepared in DI water): 1 N
- load held by lap joint ([1]; underwater, prepared in artificial seawater or periodate solution): up to 3 N
- dry Wad relative to catecholic polysiloxane ([2]; SiO2 and SiO2 surfaces): 50 fold
- adhesion Wad after air-drying ([2]; air-dried ~5 min, SiO2 and SiO2 surfaces): ~175 mJ m^−2
- wet work of adhesion Wad ([2]; underwater, SiO2 and SiO2 interface, 5 mM coating): ~7.7 mJ m^−2
